# Reference: patent EP0315434A2, “Pyridoxal hydrazone derivatives their production and use and pharmaceutical compositions containing the same” (YISSUM RESEARCH DEVELOPMENT COMPANY OF THE HEBREW …, priority 1987, dated 1989)
# How the values were obtained:
# [1] = Fate of ⁵⁹Fe tracer incubated with chelator and injected into normal rats (radioiron distribution and excretion); format: in vivo
# Description: Table 1 describes the fate of ⁵⁹Fe tracer reincubated […] with 10 mg of some of the above iron chelators and then injected subcutaneously to groups of 4 normal rats. Numbers represent mean cumulative radioiron excretion within 4 days of injection. For comparison, spontaneous excretion of radioiron and the excretion of desferrioxamine (DF) bound radioiron are also given. […]
# Spleen and kidney were counted as whole organs.
# (§1) The excretion of radioiron following ⁵⁹Fe labelling was measured in animals confined to solitary metabolic cages with stainless steel grid bottoms, and stool and urine were collected separately.
# [2] = background statement, "probably"; cited from earlier work
# [3] = Mobilization of iron from hepatic parenchymal stores in hypertransfused rats labelled with ⁵⁹Fe-ferritin; format: in vivo
# Description: In each case, 40 mg of each compound was administered per animal in a single subcutaneous injection.
# In vivo studies of chelating efficiency were performed in two models: (a) normal rats injected i.p. with 10 mg of either desferrioxamine B (DF), PIH of the prior art, PPH of Example 4 or PPHE from Example 5 labelled in vitro with ⁵⁹Fe; and (b) hypertransfused rats receiving twice 4 ml/100gm packed RBC intravenously 5 and 3 days prior to study (hematocrit 68%) and labelled with ⁵⁹Fe-ferritin injected i.v. 24h prior to iron chelating therapy as described previously. Drugs to be tested in the ⁵⁹Fe-ferritin model were given either by i.p. injection or by gastric tube at a dose of 40 mg per animal. Radioiron excretion and organ distribution were determined after 4 days
# The radioactivity of spleen, weighed portions of the liver, and 1 ml samples of blood were determined in an automatic well type scintillation counter (Packard Autogamma Model 5360 Scintillation spectrometer). Spleen and kidney were counted as whole organs.
# as §1, with “Whole body counts were performed in a small animal counter (Packard Model 446 Armac) scintillation detector. The” for “The”
# [4] = tested on: non-resistant strain of P. falciparum; details: molar concentration 1.5 x 10⁻⁵, according to Raventos-Suarez; cited from earlier work
# [5] = stated as known; cited from earlier work
# [6] = 10 mg chelator with ⁵⁹Fe, subcutaneous, normal rats, cumulative within 4 days
# [7] = 10 mg chelator with ⁵⁹Fe, subcutaneous, normal rats, within 4 days
# [8] = hypertransfused rats, 40 mg per animal, after 4 days, Desferral i.p., route not printed for Ex. 4 and Ex. 5, mean ± SD
# [9] = hypertransfused rats, 40 mg per animal, after 4 days, Desferral i.p., route not printed for Ex. 4 and Ex. 5, mean ± SD, listed as desferral
# [10] = hypertransfused rats, 40 mg per animal, single subcutaneous injection
smiles,measurement,setting,value
"CC(=O)N(O)CCCCCNC(=O)CCC(=O)N(O)CCCCCNC(=O)CCC(=O)N(O)CCCCCN [Desferral, desferrioxamine, reference compound]",Radioiron Distribution in % Feces,[1]; [6],13.5±0.7%
same,Radioiron Distribution in % Total excretion,[1]; [6],85.4±4.3%
same,Radioiron Distribution in % Urine,[1]; [6],71.9±3.6%
same,Radioiron Distribution in % Blood,[1]; [7],8.7±1.6%
same,Radioiron Distribution in % Liver,[1]; [7],2.7±0.3%
same,Radioiron Distribution in % Spleen,[1]; [7],0.14±0.03%
same,TOTAL EXCRETION OF RADIO-IRON IN RATS %,[1]; as in Table 1,85.4± 4.3%
same,half life in vivo,[2],less than 1 hr
same,reduction in hepatocellular (hepatic) radioactivity,"[3]; 40 mg i.p., hypertransfused rats, 4 days",20%
same,ORGAN DISTRIBUTION AND EXCRETION OF ⁵⁹Fe-FERRITIN (%) BLOOD,[3]; [8],4.5±0.4%
same,ORGAN DISTRIBUTION AND EXCRETION OF ⁵⁹Fe-FERRITIN (%) LIVER,[3]; [8],70.4± 6.0%
same,ORGAN DISTRIBUTION AND EXCRETION OF ⁵⁹Fe-FERRITIN (%) STOOL,[3]; [8],23.3±0.1%
same,ORGAN DISTRIBUTION AND EXCRETION OF ⁵⁹Fe-FERRITIN (%) TOTAL EXCRETION,[3]; [8],24.5±0.1%
same,ORGAN DISTRIBUTION AND EXCRETION OF ⁵⁹Fe-FERRITIN (%) URINE,"[3]; hypertransfused rats, 40 mg per animal, after 4 days, Desferral i.p., route not printed for Ex. 4 and Ex. 5, mean ± SD, listed as DESFERRAL",1.2±0%
same,ORGAN DISTRIBUTION AND EXCRETION OF ⁵⁹Fe-FERRITIN (%) STOOL,[3]; [9],23%
same,ORGAN DISTRIBUTION AND EXCRETION OF ⁵⁹Fe-FERRITIN (%) URINE,[3]; [9],negligible
same,Ferritin-⁵⁹Fe distribution in % Blood,[3]; [10],4.5±0.4%
same,Ferritin-⁵⁹Fe distribution in % Feces,[3]; [10],23.3±0.1%
same,Ferritin-⁵⁹Fe distribution in % Liver,[3]; [10],70.4±6.0%
same,Ferritin-⁵⁹Fe distribution in % Residual,[3]; [10],0%
same,Ferritin-⁵⁹Fe distribution in % Spleen,[3]; [10],0.6±0.1%
same,Ferritin-⁵⁹Fe distribution in % Urine,[3]; [10],1.2±0%
same,total radioiron excretion,"[3]; oral, 40 mg drug/animal by gastric tube, hypertransfused ⁵⁹Fe-ferritin labelled rats",6.0%
same,INHIBITION OF GROWTH OF P. falciparum % INHIBITION,[4],complete after 96 Hrs. ^(*)
same,oral efficiency,[5],no oral efficiency
